In PubChem BioAssay (NCI):
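Assay format: 96-well plates, 48-hour exposure. The concentration for full growth arrest is given as TGI.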

What was measured:
Assay in all cases: inhibition of tumour cell growth, NCI panel, 48 h
[1] = system: KM12 colon
[2] = system: HCT-15 colon
[3] = system: SF-268 CNS
[4] = system: HCC-2998 colon
[5] = system: UACC-257 melanoma
[6] = system: SN12C renal
[7] = system: SK-MEL-2 melanoma
[8] = system: K-562 leukemia
[9] = system: HOP-62 NSCLC
[10] = system: DMS 273 small cell lung
[11] = system: RPMI-8226 leukemia
[12] = system: CAKI-1 renal
[13] = system: NCI-H23 lung
[14] = system: OVCAR-8 ovarian
[15] = system: OVCAR-3 ovarian
[16] = system: A498 renal
[17] = system: KM20L2 colon
[18] = system: ACHN renal
[19] = system: SF-539 CNS
[20] = system: U251 CNS
[21] = system: OVCAR-4 ovarian
[22] = system: TK-10 renal
[23] = system: SK-OV-3 ovarian
[24] = system: SNB-78 CNS
[25] = system: UO-31 renal
[26] = system: A549 NSCLC
[27] = system: SNB-75 CNS
[28] = system: 786-0 renal
[29] = system: SK-MEL-5 melanoma
[30] = system: DMS 114 small cell lung
[31] = system: IGROV1 ovarian
[32] = system: SK-MEL-28 melanoma
[33] = system: MOLT-4 leukemia
[34] = system: SNB-19 CNS
[35] = system: OVCAR-5 ovarian
[36] = system: SW-620 colon
[37] = system: CCRF-CEM leukemia
[38] = system: MALME-3M melanoma
[39] = system: NCI-H226 lung
[40] = system: RXF 393 renal
[41] = system: M19-MEL melanoma
[42] = system: SR leukemia
[43] = system: COLO 205 colon
[44] = system: LOX IMVI melanoma
[45] = system: HT29 colon
[46] = system: M14 melanoma
[47] = system: SF-295 CNS
[48] = system: NCI-H460 lung
[49] = system: NCI-H522 lung
[50] = system: HL-60(TB) leukemia
[51] = system: EKVX NSCLC
[52] = system: HCT-116 colon
[53] = system: HOP-92 NSCLC
[54] = system: DLD-1 colon
[55] = system: XF 498 CNS
[56] = system: UACC-62 melanoma
[57] = system: LXFL 529 NSCLC
[58] = system: BT-549 breast
[59] = system: PC-3 prostate
[60] = system: HS 578T breast
[61] = system: T-47D breast
[62] = system: NCI/ADR-RES ovarian
[63] = system: MDA-MB-231 breast
[64] = system: MDA-N
[65] = system: MCF7 breast
[66] = system: DU-145 prostate
[67] = system: MDA-MB-435

O=C(N=c1nc(NC(=O)c2ccccc2)ss1)c1ccccc1
TGI [1]: > 100 µM
TGI [2]: > 100 µM
TGI [3]: > 100 µM
TGI [4]: > 100 µM
TGI [5]: 48.1 µM
TGI [6]: 66.6 µM
TGI [7]: > 100 µM
TGI [8]: > 100 µM
TGI [9]: > 100 µM
TGI [10]: 89.1 µM
TGI [11]: 77.6 µM
TGI [12]: 75.8 µM
TGI [13]: 92.5 µM
TGI [14]: 82.8 µM
TGI [15]: 55.7 µM
TGI [16]: 87.6 µM
TGI [17]: > 100 µM
TGI [18]: 31.6 µM
TGI [19]: 37.9 µM
TGI [20]: 37.1 µM
TGI [21]: > 100 µM
TGI [22]: > 100 µM
TGI [23]: 68.9 µM
TGI [24]: > 100 µM
TGI [25]: 62.8 µM
TGI [26]: 49.7 µM
TGI [27]: > 100 µM
TGI [28]: > 100 µM
TGI [29]: 34.7 µM
TGI [30]: 90.3 µM
TGI [31]: > 100 µM
TGI [32]: > 100 µM
TGI [33]: > 100 µM
TGI [34]: > 100 µM
TGI [35]: > 100 µM
TGI [36]: > 100 µM
TGI [37]: > 100 µM
TGI [38]: > 100 µM
TGI [39]: > 100 µM
TGI [40]: > 100 µM
TGI [41]: > 100 µM
TGI [42]: 75.4 µM
TGI [43]: 47.3 µM
TGI [44]: > 100 µM
TGI [45]: 37.6 µM
TGI [46]: 76.2 µM
TGI [47]: 70.6 µM
TGI [48]: 39.7 µM
TGI [49]: 42.4 µM
TGI [50]: 40.6 µM
TGI [51]: > 100 µM
TGI [52]: > 100 µM

CC1C=CC(C(N)C(=O)O)O1 (stereo unspecified)
TGI [1]: > 100 µM
TGI [53]: > 100 µM
TGI [2]: > 100 µM
TGI [3]: > 100 µM
TGI [4]: > 100 µM
TGI [6]: > 100 µM
TGI [7]: > 100 µM
TGI [8]: > 100 µM
TGI [9]: > 100 µM
TGI [10]: > 100 µM
TGI [11]: > 100 µM
TGI [12]: > 100 µM
TGI [13]: > 100 µM
TGI [14]: > 100 µM
TGI [15]: > 100 µM
TGI [16]: > 100 µM
TGI [17]: > 100 µM
TGI [18]: > 100 µM
TGI [19]: > 100 µM
TGI [20]: > 100 µM
TGI [21]: > 100 µM
TGI [54]: > 100 µM
TGI [55]: > 100 µM
TGI [23]: > 100 µM
TGI [24]: > 100 µM
TGI [25]: > 100 µM
TGI [26]: > 100 µM
TGI [27]: > 100 µM
TGI [28]: > 100 µM
TGI [29]: > 100 µM
TGI [56]: > 100 µM
TGI [30]: > 100 µM
TGI [31]: > 100 µM
TGI [32]: > 100 µM
TGI [33]: > 100 µM
TGI [57]: > 100 µM
TGI [34]: > 100 µM
TGI [35]: > 100 µM
TGI [36]: > 100 µM
TGI [37]: > 100 µM
TGI [38]: > 100 µM
TGI [39]: > 100 µM
TGI [40]: > 100 µM
TGI [41]: > 100 µM
TGI [42]: > 100 µM
TGI [43]: > 100 µM
TGI [44]: > 100 µM
TGI [45]: > 100 µM
TGI [46]: > 100 µM
TGI [47]: > 100 µM
TGI [48]: > 100 µM
TGI [49]: > 100 µM
TGI [50]: > 100 µM
TGI [51]: > 100 µM
TGI [52]: > 100 µM

CN(C)CCCNC(=O)c1cc(NS(=O)(=O)c2ccc3c(c2)C(=O)c2ccccc2C3=O)cn1C
TGI [1]: 41.1 µM
TGI [53]: > 100 µM
TGI [2]: > 100 µM
TGI [3]: 72.5 µM
TGI [4]: 57.3 µM
TGI [5]: 37.6 µM
TGI [58]: 53.9 µM
TGI [6]: 90.7 µM
TGI [7]: > 100 µM
TGI [59]: > 100 µM
TGI [8]: > 100 µM
TGI [9]: > 100 µM
TGI [11]: 53.2 µM
TGI [12]: > 100 µM
TGI [13]: 64.7 µM
TGI [14]: > 100 µM
TGI [15]: > 100 µM
TGI [16]: 42.6 µM
TGI [18]: 49.5 µM
TGI [19]: 75.6 µM
TGI [60]: > 100 µM
TGI [20]: > 100 µM
TGI [61]: > 100 µM
TGI [21]: 36.8 µM
TGI [22]: 51.3 µM
TGI [23]: > 100 µM
TGI [25]: > 100 µM
TGI [62]: > 100 µM
TGI [26]: > 100 µM
TGI [27]: 56 µM
TGI [28]: 77.3 µM
TGI [29]: 37.4 µM
TGI [56]: 41.4 µM
TGI [31]: 75.1 µM
TGI [32]: 50.8 µM
TGI [33]: > 100 µM
TGI [63]: 85.5 µM
TGI [64]: 60 µM
TGI [65]: 46.4 µM
TGI [34]: 39.6 µM
TGI [35]: > 100 µM
TGI [36]: > 100 µM
TGI [37]: > 100 µM
TGI [38]: 18.7 µM
TGI [39]: 42.5 µM
TGI [40]: 57.4 µM
TGI [42]: 85.2 µM
TGI [43]: > 100 µM
TGI [66]: 76.3 µM
TGI [44]: 39.6 µM
TGI [45]: 81.4 µM
TGI [46]: 62.8 µM
TGI [47]: 94.9 µM
TGI [67]: 59 µM
TGI [48]: 54.9 µM
TGI [49]: 52.5 µM
TGI [50]: 62.3 µM
TGI [51]: > 100 µM
TGI [52]: > 100 µM
